Read-outs that look alike come from different tables or passages of the source.
Experiment: Storage stability of nasal sprays with preservatives
Description: As the preservative, for example, benzalkonium chloride, which is often employed in the field of nasal drops, may be used. […] In addition to the free acids as such, their partially or completely neutralized salts may also be added to the nasal sprays.

| Compound | storage stability of the nasal spray (preservative in nasal spray, compared to benzalkonium chloride) | storage stability of the nasal spray |
| --- | --- | --- |
| O=C(O)c1ccccc1 [benzoic acid] | significant extension of the storage stability | – |
| C/C=C/C=C/C(=O)O [sorbic acid] | – | significant extension of the storage stability |
